# Results as given in US9321776B2, “Isochromene derivatives as phoshoinositide 3-kinases inhibitors” (CHIESI FARMACEUTICI S.p.A., priority 2013, dated 2016).
# Where a name gives a salt, the structure may show the parent alone.
# How the values were obtained:
# PI3Kδ = target: T1, PI3Kδ (Homo sapiens, UniProt O00329); assay: PI3K enzyme inhibitory activity in the cell free assay (ADP-Glo Kinase Assay); type: biochemical; settings: human recombinant PI3Kδ, ATP 80 μM; read-out: PI3K delta inhibition
# T1 construct: purchased Millipore Ltd (Billerica, Mass.)
# T1 sequence (O00329 1-1044): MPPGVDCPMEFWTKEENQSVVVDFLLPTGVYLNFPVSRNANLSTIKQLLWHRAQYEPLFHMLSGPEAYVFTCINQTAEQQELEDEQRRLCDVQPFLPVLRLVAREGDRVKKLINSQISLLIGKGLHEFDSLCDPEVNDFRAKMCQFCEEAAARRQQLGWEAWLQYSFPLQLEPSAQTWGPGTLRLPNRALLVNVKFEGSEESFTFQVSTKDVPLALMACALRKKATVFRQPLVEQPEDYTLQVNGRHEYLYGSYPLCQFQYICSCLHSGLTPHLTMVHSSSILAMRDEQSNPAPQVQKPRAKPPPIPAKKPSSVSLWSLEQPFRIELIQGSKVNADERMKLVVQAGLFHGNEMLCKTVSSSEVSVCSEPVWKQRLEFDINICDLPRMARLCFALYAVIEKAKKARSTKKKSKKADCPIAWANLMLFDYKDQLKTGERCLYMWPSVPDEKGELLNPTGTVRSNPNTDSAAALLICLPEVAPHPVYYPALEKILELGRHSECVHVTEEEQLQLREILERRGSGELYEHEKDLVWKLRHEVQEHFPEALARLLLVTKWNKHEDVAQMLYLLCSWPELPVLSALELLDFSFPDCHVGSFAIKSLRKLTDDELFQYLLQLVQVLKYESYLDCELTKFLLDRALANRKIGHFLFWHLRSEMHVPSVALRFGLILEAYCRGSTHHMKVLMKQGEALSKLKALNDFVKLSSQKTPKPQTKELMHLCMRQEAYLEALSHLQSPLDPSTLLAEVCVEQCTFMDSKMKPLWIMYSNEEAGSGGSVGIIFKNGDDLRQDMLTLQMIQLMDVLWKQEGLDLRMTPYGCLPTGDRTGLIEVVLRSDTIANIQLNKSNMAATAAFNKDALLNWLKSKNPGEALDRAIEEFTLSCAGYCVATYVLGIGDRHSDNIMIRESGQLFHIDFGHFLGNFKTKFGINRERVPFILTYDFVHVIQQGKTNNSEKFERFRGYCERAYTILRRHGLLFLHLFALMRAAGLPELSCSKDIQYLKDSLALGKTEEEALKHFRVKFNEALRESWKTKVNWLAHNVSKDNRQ
# PI3Kγ = target: T2, PI3Kγ (Homo sapiens, UniProt P48736); assay: as above; type: biochemical; settings: human recombinant PI3Kγ, ATP 30 μM; read-out: PI3K gamma inhibition
# T2 construct: purchased Millipore Ltd (Billerica, Mass.)
# T2 sequence (P48736 whole entry): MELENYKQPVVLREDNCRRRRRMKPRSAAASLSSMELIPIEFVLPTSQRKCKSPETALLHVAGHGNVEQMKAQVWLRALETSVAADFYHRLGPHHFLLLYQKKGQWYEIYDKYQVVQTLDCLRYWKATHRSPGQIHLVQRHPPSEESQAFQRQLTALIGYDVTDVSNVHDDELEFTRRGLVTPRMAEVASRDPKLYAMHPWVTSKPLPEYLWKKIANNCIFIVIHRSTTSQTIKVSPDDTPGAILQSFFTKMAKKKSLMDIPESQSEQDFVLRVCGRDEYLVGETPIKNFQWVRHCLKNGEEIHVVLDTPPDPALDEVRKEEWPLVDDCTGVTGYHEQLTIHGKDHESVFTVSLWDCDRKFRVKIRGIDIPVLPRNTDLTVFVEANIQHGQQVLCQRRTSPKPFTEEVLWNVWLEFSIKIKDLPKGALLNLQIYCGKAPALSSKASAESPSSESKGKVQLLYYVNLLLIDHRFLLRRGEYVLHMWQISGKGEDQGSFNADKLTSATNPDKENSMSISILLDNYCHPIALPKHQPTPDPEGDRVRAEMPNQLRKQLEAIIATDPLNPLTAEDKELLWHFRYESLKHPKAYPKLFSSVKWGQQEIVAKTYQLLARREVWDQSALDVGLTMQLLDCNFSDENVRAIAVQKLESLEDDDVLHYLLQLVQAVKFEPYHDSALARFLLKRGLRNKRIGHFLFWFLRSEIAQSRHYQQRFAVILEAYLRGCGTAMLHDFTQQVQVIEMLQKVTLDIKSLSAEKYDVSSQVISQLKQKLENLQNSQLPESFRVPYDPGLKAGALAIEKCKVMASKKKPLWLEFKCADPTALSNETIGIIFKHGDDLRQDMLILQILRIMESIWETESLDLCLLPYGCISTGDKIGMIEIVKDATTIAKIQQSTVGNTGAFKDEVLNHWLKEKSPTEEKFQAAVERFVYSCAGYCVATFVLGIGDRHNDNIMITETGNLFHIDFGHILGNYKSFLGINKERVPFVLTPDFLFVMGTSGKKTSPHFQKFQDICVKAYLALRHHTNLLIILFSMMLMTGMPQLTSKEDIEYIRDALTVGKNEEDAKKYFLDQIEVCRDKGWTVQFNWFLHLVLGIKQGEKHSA
IC50 (PI3Kδ) [nM],IC50 (PI3Kγ) [nM],Compound
10 to 1000,> 1000,"CC(c1oc(=O)c2ccccc2c1C1=CCN(C)CC1)n1nc(-c2cc(O)cc(F)c2)c2c(N)ncnc21 (single isomer, unassigned) [Example 46b, 3-1-(4-amino-3-(3-fluoro-5-hydroxyphenyl)-1H-pyrazolo[3,4-d]pyrimidin-1-yl)ethyl)-4-(1-methyl-1,2,3,6-tetrahydropyridin-4-yl)-1H-isochromen-1-one hydrochloride]"
10 to 1000,> 1000,"Cc1cccc(-c2c(C(C)Sc3ncnc4[nH]cnc34)oc(=O)c3ccccc23)c1 (centres unmarked) [Example 13, 3-(1-(9H-Purin-6-ylthio)ethyl)-4-m-tolyl-1H-isochromen-1-one]"
10 to 1000,10 to 1000,"CC(Nc1ncnc2[nH]cnc12)c1oc(=O)c2ccccc2c1-c1ccc(OCCN2CCOCC2)cc1 (centres unmarked) [Example 26, 3-(1-(9H-Purin-6-ylamino)ethyl)-4-(4-(2-morpholinoethoxy)phenyl)-1H-isochromen-1-one formate]"
10 to 1000,10 to 1000,"CC(c1oc(=O)c2ccccc2c1-c1cccc(S(=O)(=O)N2CCOCC2)c1)n1cnc2c(N)ncnc21 (centres unmarked) [Example 9, 3-(1-(6-Amino-9H-purin-9-yl)ethyl)-4-(3-(morpholinosulfonyl)phenyl)-1H-isochromen-1-one]"
10 to 1000,10 to 1000,"CC(Nc1ncnc2cccnc12)c1oc(=O)c2ccccc2c1-c1ccccc1 (centres unmarked) [Example 84, 4-phenyl-3-(1-(pyrido[3,2-d]pyrimidin-4-ylamino)ethyl)-1H-isochromen-1-one]"
10 to 1000,10 to 1000,"CC(Nc1ncnc2ccsc12)c1oc(=O)c2ccccc2c1-c1ccccc1 (centres unmarked) [Example 109, 4-phenyl-3-(1-(thieno[3,2-d]pyrimidin-4-ylamino)ethyl)-1H-isochromen-1-one]"
> 1000,10 to 1000,"CC(c1oc(=O)c2ccccc2c1-c1ccccc1)n1nc(-c2ccnc(N)n2)c2c(N)ncnc21 (centres unmarked) [Example 89, 3-(1-(4-amino-3-(2-aminopyrimidin-4-yl)-1H-pyrazolo[3,4-d]pyrimidin-1-yl)ethyl)-4-phenyl-1H-isochromen-1-one hydrochloride]"
10 to 1000,–,"Cc1cc(-c2c(C(C)n3ncc4c(N)ncnc43)oc(=O)c3ccccc23)ccn1 (centres unmarked) [Example 19, 3-(1-(4-Amino-1H-pyrazolo[3,4-d]pyrimidin-1-yl)ethyl)-4-(2-methylpyridin-4-yl)-1H-isochromen-1-one]"
10 to 1000,> 1000,"CC(c1oc(=O)c2ccccc2c1-c1ccccc1)n1nc(-c2ccnnc2)c2c(N)ncnc21 (centres unmarked) [Example 53, 3-(1-(4-amino-3-(pyridazin-4-yl)-1H-pyrazolo[3,4-d]pyrimidin-1-yl)ethyl)-4-phenyl-1H-isochromen-1-one]"
10 to 1000,10 to 1000,"O=c1oc(CNc2ncnc3[nH]cnc23)c(-c2cccc(F)c2)c2ccccc12 [Example 21, 3-((9H-Purin-6-ylamino)methyl)-4-(3-fluorophenyl)-1H-isochromen-1-one]"
10 to 1000,–,"CC(c1oc(=O)c2ccccc2c1-c1ccccc1)n1nc(-c2cncc(S(C)(=O)=O)c2)c2c(N)ncnc21 (centres unmarked) [Example 96, 3-(1-(4-amino-3-(5-(methylsulfonyl)pyridin-3-yl)-1H-pyrazolo[3,4-d]pyrimidin-1-yl)ethyl)-4-phenyl-1H-isochromen-1-one]"
10 to 1000,–,"CC(c1oc(=O)c2ccccc2c1-c1ccccc1)n1nc(-c2ccc3[nH]nc(N)c3c2)c2c(N)ncnc21 (centres unmarked) [Example 113, 3-(1-(4-amino-3-(3-amino-1H-indazol-5-yl)-1H-pyrazolo[3,4-d]pyrimidin-1-yl)ethyl)-4-phenyl-1H-isochromen-1-one]"
10 to 1000,–,"CC(c1oc(=O)c2ccccc2c1-c1ccc(CN2CCN(CCO)CC2)s1)n1nc(-c2cc(O)cc(F)c2)c2c(N)ncnc21 (single isomer, unassigned) [Example 76a, 3-(1-(4-amino-3-(3-fluoro-5-hydroxyphenyl)-1H-pyrazolo[3,4-d]pyrimidin-1-yl)ethyl)-4-(5-((4-(2-hydroxyethyl)piperazin-1-yl)methyl)thiophen-2-yl)-1H-isochromen-1-one hydrochloride]"
10 to 1000,–,"CC(c1oc(=O)c2ccccc2c1-c1cccc(CN(C)C)c1)n1nc(-c2cc(O)cc(F)c2)c2c(N)ncnc21 (single isomer, unassigned) [Example 67b, 3-(1-(4-amino-3-(3-fluoro-5-hydroxyphenyl)-1H-pyrazolo[3,4-d]pyrimidin-1-yl)ethyl)-4-(3-((dimethylamino)methyl)phenyl)-1H-isochromen-1-one]"
10 to 1000,–,"CC(c1oc(=O)c2ccccc2c1-c1ccccc1)n1nc(-c2cc(O)cc(S(F)(F)(F)(F)F)c2)c2c(N)ncnc21 (centres unmarked) [Example 101, 3-(1-(4-amino-3-(5-hydroxy-3-sulfurpentafluoride)-1H-pyrazolo[3,4-d]pyrimidin-1-yl)ethyl)-4-phenyl-1H-isochromen-1-one]"
> 1000,–,"CC(c1oc(=O)c2ccccc2c1-c1ccc(CN2CCNCC2)cc1)n1ncc2c(N)ncnc21 (centres unmarked) [Example 127, 3-(1-(4-amino-1H-pyrazolo[3,4-d]pyrimidin-1-yl)ethyl)-4-(4-(piperazin-1-ylmethyl)phenyl)-1H-isochromen-1-one hydrochloride]"
–,10 to 1000,"CC(c1oc(=O)c2ccccc2c1-c1ccccc1)n1nc(-c2cncc(C#N)c2)c2c(N)ncnc21 (centres unmarked) [Example 102, 5-(4-amino-1-(1-(1-oxo-4-phenyl-1H-isochromen-3-yl)ethyl)-1H-pyrazolo[3,4-d]pyrimidin-3-yl)nicotinonitrile]"
10 to 1000,–,"CC(c1oc(=O)c2ccccc2c1Cc1ccccc1)n1ncc2c(N)ncnc21 (centres unmarked) [Example 20, 3-(1-(4-Amino-1H-pyrazolo[3,4-d]pyrimidin-1-yl)ethyl)-4-benzyl-1H-isochromen-1-one]"
10 to 1000,–,"CC(c1oc(=O)c2ccccc2c1-c1ccc(CN2CCCCC2)s1)n1nc(-c2cc(O)cc(F)c2)c2c(N)ncnc21 (single isomer, unassigned) [Example 68a, 3-(1-(4-amino-3-(3-fluoro-5-hydroxyphenyl)-1H-pyrazolo[3,4-d]pyrimidin-1-yl)ethyl)-4-(5-(piperidin-1-ylmethyl)thiophen-2-yl)-1H-isochromen-1-one hydrochloride single enantiomers]"
10 to 1000,–,"CC(c1oc(=O)c2ccccc2c1-c1ccccc1)n1nc(-c2cncc(O)n2)c2c(N)ncnc21 (centres unmarked) [Example 90, 3-(1-(4-amino-3-(6-hydroxypyrazin-2-yl)-1H-pyrazolo[3,4-d]pyrimidin-1-yl)ethyl)-4-phenyl-1H-isochromen-1-one]"
10 to 1000,–,"CC(c1oc(=O)c2ccccc2c1-c1ccccc1)n1nc(-c2cnc(O)nc2)c2c(N)ncnc21 (centres unmarked) [Example 56, 3-(1-(4-amino-3-(2-hydroxypyrimidin-5-yl)-1H-pyrazolo[3,4-d]pyrimidin-1-yl)ethyl)-4-phenyl-1H-isochromen-1-one]"
10 to 1000,–,"CC(c1oc(=O)c2ccccc2c1-c1ccccc1)n1nc(-c2cncc(C(F)(F)F)c2)c2c(N)ncnc21 (centres unmarked) [Example 100, 3-(1-(4-amino-3-(5-(trifluoromethyl)pyridin-3-yl)-1H-pyrazolo[3,4-d]pyrimidin-1-yl)ethyl)-4-phenyl-1H-isochromen-1-one]"
> 1000,–,"CC(c1oc(=O)c2ccccc2c1-c1ccccc1)n1nc(-c2cc(F)cc(Cl)c2)c2c(N)ncnc21 (centres unmarked) [Example 95, 3-(1-(4-amino-3-(3-chloro-5-fluorophenyl)-1H-pyrazolo[3,4-d]pyrimidin-1-yl)ethyl)-4-phenyl-1H-isochromen-1-one]"
10 to 1000,–,"CC(Nc1ncnc2sccc12)c1oc(=O)c2ccccc2c1-c1ccccc1 (centres unmarked) [Example 108, 4-phenyl-3-(1-(thieno[2,3-d]pyrimidin-4-ylamino)ethyl)-1H-isochromen-1-one]"
> 1000,–,"CC(c1oc(=O)c2ccccc2c1-c1ccc(CCCN(C)C)cc1)n1nc(-c2cc(O)cc(F)c2)c2c(N)ncnc21 (single isomer, unassigned) [Example 138a, 3-(1-(4-amino-3-(3-fluoro-5-hydroxyphenyl)-1H-pyrazolo[3,4-d]pyrimidin-1-yl)ethyl)-4-(4-(3-(dimethylamino)propyl)phenyl)-1H-isochromen-1-one single enantiomers]"
10 to 1000,–,"CC(c1oc(=O)c2ccccc2c1-c1ccccc1)n1nc(-c2cnc(O)c(F)c2)c2c(N)ncnc21 (centres unmarked) [Example 98, 3-(1-(4-amino-3-(5-fluoro-6-hydroxypyridin-3-yl)-1H-pyrazolo[3,4-d]pyrimidin-1-yl)ethyl)-4-phenyl-1H-isochromen-1-one]"
